# Measurements published in patent publication US10537563B2, “Methods for treating ocular disease using inhibitors of CSF-1R” (NOVARTIS AG, priority 2016, dated 2020).
# Assays:
# [1] = biological target: T1, PDGFRKalpha (h) (Homo sapiens, UniProt P16234); experiment: Kinase profiling at Invitrogen; type: biochemical
# T1 construct: purchased Invitrogen
# [2] = biological target: FGFR2 (Homo sapiens, UniProt P21802); experiment: In vitro kinase assay (Table 1); type: biochemical
# [3] = test system: BAF/bRaf Pim1-1/sACP; experiment: BaF3 proliferation assay; type: cell-based, murine; conditions: Mus musculus
# [4] = biological target: CDC2_cyclinB (Homo sapiens, UniProt P06493); experiment: In vitro kinase assay (Table 1); type: biochemical
# [5] = test system: human macrophages; experiment: CSF-1 and IL-34 mediated macrophage survival; type: cell-based; conditions: 0.1 to 10 μM; 4 donors
# Description: (§1) Freshly isolated human PBMCs were used to purify human monocytes by negative selection using an indirect magnetic labeling system. […] Soluble factors such as cytokines (VEGFa, IL-6 etc.) and chemokines (IL-8, MCP-1, MMP9 etc.) in the culture supernatant were measured using commercial ELISA kits. The in vitro survival of human macrophages was measured using a commercially available CellTiter-Glo® system. Most observed results were repeated in multiple donors (n>5).
# A dose range (0 to 100 ng/ml) of CSF-1 or IL-34 was tested and macrophage survival positively correlated with increasing dose of CSF-1 or IL-34 with no difference between the 2 factors observed.
# [6] = biological target: PDK_1 (Homo sapiens, UniProt O15530); experiment: In vitro kinase assay (Table 1); type: biochemical
# PDK_1, sequence (O15530 whole entry): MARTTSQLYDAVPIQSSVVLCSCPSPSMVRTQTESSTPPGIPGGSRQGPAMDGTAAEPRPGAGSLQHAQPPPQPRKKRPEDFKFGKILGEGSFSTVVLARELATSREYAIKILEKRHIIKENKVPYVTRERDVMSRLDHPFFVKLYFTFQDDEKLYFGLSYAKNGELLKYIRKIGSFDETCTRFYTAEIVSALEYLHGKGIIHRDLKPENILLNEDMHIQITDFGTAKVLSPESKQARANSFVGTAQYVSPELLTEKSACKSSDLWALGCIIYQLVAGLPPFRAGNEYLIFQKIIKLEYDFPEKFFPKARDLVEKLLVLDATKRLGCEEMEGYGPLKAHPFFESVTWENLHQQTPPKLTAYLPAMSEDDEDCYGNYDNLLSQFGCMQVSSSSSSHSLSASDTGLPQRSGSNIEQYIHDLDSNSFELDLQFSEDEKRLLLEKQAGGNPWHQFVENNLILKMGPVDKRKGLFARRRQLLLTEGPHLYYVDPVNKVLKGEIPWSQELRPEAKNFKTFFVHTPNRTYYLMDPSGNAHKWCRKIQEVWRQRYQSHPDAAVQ
# [7] = biological target: TRKB (Homo sapiens, UniProt Q16620); experiment: In vitro kinase assay (Table 1); type: biochemical
# [8] = biological target: FGFR1 (Homo sapiens, UniProt P11362); experiment: In vitro kinase assay (Table 1); type: biochemical
# [9] = biological target: mut_bRaf_V599E (Homo sapiens, UniProt P15056, V600E); experiment: In vitro kinase assay (Table 1); type: biochemical
# mut_bRaf_V599E, sequence (P15056 whole entry V600E): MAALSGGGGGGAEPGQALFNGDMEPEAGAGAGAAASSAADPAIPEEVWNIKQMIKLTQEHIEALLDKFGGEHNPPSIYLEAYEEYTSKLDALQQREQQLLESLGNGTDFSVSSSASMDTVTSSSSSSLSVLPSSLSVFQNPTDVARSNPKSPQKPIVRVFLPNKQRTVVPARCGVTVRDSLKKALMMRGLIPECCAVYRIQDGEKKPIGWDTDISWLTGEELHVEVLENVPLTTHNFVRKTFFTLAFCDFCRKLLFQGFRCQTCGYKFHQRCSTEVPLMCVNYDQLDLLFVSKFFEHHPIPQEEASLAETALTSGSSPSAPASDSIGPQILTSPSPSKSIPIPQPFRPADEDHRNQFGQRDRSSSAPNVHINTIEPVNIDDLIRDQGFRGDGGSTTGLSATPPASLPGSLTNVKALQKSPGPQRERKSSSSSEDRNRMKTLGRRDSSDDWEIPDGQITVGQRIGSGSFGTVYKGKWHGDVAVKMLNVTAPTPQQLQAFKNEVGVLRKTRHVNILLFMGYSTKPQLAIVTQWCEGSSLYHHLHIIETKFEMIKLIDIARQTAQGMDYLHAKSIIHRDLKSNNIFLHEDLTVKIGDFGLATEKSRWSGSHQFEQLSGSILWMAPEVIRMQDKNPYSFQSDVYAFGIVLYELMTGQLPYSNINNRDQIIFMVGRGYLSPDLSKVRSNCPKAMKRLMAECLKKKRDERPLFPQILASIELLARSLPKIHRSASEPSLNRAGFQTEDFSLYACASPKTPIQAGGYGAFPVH
# [10] = biological target: T2, BAF/Tel-EphB2-Q2/sACP (Homo sapiens, UniProt P29323); experiment: BaF3 proliferation assay; type: cell-based, murine
# T2 construct: fused on or other part: P41212 (Transcription factor ETV6)
# [11] = test system: VEGFa; experiment: VEGFa production by human macrophages; type: cell-based; conditions: stimulation with MCSF or IL-34
# Description: as §1
# Activated human macrophages are a source of VEGFa. Human macrophages produce VEGFa following stimulation with MCSF or IL-34.
# [12] = biological target: T3, BAF/Tel-MER-3.2 (Homo sapiens, UniProt Q12866); experiment: BaF3 proliferation assay; type: cell-based, murine
# T3 construct: fused on or other part: P41212 (Transcription factor ETV6)
# [13] = test system: CD163; experiment: CD163 expression in M2c macrophages; type: cell-based, human
# Description: as §1
# [14] = biological target: Abl (Homo sapiens, UniProt P00519); experiment: In vitro kinase assay (Table 1); type: biochemical
# [15] = test system: MCSF-dependent proliferation; experiment: MCSF-dependent proliferation; type: cell-based; conditions: read-out: MCSF-dependent proliferation cellular EC50
# [16] = biological target: PAK4 (Homo sapiens, UniProt O96013); experiment: In vitro kinase assay (Table 1); type: biochemical
# [17] = biological target: IGF-1R (Homo sapiens, UniProt P08069); experiment: In vitro kinase assay (Table 1); type: biochemical
# IGF-1R, sequence (P08069 31-1367, species assumed): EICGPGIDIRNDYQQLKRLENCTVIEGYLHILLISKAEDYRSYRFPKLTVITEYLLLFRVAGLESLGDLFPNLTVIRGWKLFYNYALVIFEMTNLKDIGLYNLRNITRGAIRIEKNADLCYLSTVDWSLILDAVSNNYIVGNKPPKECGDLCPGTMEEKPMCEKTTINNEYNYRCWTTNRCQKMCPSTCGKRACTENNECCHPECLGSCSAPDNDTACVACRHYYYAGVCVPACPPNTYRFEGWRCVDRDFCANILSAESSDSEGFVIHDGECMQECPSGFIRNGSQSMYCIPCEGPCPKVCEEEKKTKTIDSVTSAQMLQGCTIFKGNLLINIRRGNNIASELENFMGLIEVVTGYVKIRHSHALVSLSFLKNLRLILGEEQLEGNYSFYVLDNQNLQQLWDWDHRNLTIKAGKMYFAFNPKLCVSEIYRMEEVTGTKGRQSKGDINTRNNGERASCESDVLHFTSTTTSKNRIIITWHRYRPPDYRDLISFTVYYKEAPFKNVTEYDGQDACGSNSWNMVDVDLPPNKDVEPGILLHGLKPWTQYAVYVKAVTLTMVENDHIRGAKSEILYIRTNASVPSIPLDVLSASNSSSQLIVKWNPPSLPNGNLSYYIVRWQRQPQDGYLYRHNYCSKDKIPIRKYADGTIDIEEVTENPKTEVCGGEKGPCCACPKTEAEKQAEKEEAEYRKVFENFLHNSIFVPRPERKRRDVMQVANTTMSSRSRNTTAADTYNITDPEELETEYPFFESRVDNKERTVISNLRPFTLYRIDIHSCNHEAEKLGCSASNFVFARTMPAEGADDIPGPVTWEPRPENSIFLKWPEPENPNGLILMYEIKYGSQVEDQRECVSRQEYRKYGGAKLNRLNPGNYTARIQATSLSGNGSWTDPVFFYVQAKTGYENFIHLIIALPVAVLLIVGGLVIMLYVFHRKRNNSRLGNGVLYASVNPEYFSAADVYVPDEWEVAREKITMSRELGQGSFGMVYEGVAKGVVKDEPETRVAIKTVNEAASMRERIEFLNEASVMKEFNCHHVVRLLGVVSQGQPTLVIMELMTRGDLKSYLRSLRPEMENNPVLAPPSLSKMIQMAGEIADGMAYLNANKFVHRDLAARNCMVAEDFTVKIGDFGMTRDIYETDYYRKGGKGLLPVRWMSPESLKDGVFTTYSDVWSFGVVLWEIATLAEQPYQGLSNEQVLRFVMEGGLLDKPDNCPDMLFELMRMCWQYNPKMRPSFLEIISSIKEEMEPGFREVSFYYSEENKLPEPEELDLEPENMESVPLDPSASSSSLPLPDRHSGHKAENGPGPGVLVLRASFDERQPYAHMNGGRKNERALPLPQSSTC
# [18] = biological target: Dyrk3 (Homo sapiens, UniProt O43781); experiment: In vitro kinase assay (Table 1); type: biochemical
# [19] = biological target: T4, BAF/Bcr-Abl-Luc/sACP (Homo sapiens, UniProt P00519); experiment: BaF3 proliferation assay; type: cell-based, murine
# T4 construct: no part of the key; P11274 (Breakpoint cluster region protein)
# [20] = biological target: BaF-PTC3-RET (Homo sapiens, UniProt P07949); experiment: BaF3 proliferation assay; type: cell-based, murine
# [21] = biological target: ROS (Homo sapiens, UniProt P08922); experiment: In vitro kinase assay (Table 1); type: biochemical
# [22] = biological target: CamKII alpha (Homo sapiens, UniProt Q9UQM7); experiment: In vitro kinase assay (Table 1); type: biochemical
# [23] = biological target: PIK3Calpha (Homo sapiens, UniProt P42336); experiment: In vitro kinase assay (Table 1); type: biochemical
# [24] = biological target: T5, BAF/Tel-TRKA-Q.3/sACP (Homo sapiens, UniProt P04629); experiment: BaF3 proliferation assay; type: cell-based, murine
# T5 construct: fused on or other part: P41212 (Transcription factor ETV6)
# [25] = biological target: T6, BAF/Tel-FGR-2.1/sACP (Homo sapiens, UniProt P09769); experiment: BaF3 proliferation assay; type: cell-based, murine
# T6 construct: fused on or other part: P41212 (Transcription factor ETV6)
# [26] = biological target: T7, BaF3-Tel-INSR 1.2 (Homo sapiens, UniProt P06213); experiment: BaF3 proliferation assay; type: cell-based, murine
# T7 construct: fused on or other part: P41212 (Transcription factor ETV6)
# [27] = biological target: T8, BAF/Tel-TYK2-1.3/sACP (Homo sapiens, UniProt P29597); experiment: BaF3 proliferation assay; type: cell-based, murine
# T8 construct: fused on or other part: P41212 (Transcription factor ETV6)
# [28] = biological target: T9, BAF/Tel-FGFR3-Q2/sACP (Homo sapiens, UniProt P22607); experiment: BaF3 proliferation assay; type: cell-based, murine
# T9 construct: fused on or other part: P41212 (Transcription factor ETV6)
# [29] = biological target: Pim2 (Homo sapiens, UniProt Q9P1W9); experiment: In vitro kinase assay (Table 1); type: biochemical
# [30] = test system: MMP-9; experiment: MMP-9 production by human monocytes (ELISA); type: cell-based; conditions: Monocyte
# Description: as §1
# [31] = biological target: T10, BAF/Tel-MET-3.1/sACP (Homo sapiens, UniProt P08581); experiment: BaF3 proliferation assay; type: cell-based, murine
# T10 construct: fused on or other part: P41212 (Transcription factor ETV6)
# [32] = biological target: Nek2 (Homo sapiens, UniProt P51955); experiment: In vitro kinase assay (Table 1); type: biochemical
# Nek2, sequence (P51955 whole entry, species assumed): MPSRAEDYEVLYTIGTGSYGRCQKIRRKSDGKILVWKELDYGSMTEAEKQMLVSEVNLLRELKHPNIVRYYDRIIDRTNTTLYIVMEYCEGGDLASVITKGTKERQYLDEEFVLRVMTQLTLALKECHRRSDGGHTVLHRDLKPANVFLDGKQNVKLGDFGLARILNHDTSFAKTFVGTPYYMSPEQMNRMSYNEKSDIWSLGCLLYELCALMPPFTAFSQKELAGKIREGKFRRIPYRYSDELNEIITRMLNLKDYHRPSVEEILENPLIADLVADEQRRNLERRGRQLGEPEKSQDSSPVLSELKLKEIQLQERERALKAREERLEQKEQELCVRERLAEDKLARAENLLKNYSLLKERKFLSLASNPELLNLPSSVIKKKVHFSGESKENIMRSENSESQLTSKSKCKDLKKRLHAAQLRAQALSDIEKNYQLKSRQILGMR
# [33] = biological target: T11, BAF/Tel-TRKB-Q2/sACP (Homo sapiens, UniProt Q16620); experiment: BaF3 proliferation assay; type: cell-based, murine
# T11 construct: fused on or other part: P41212 (Transcription factor ETV6)
# [34] = biological target: T12, Khs1 (h) (Homo sapiens, UniProt Q9Y4K4); experiment: Kinase profiling at Invitrogen; type: biochemical
# T12 construct: purchased Invitrogen
# T12 sequence (Q9Y4K4 whole entry): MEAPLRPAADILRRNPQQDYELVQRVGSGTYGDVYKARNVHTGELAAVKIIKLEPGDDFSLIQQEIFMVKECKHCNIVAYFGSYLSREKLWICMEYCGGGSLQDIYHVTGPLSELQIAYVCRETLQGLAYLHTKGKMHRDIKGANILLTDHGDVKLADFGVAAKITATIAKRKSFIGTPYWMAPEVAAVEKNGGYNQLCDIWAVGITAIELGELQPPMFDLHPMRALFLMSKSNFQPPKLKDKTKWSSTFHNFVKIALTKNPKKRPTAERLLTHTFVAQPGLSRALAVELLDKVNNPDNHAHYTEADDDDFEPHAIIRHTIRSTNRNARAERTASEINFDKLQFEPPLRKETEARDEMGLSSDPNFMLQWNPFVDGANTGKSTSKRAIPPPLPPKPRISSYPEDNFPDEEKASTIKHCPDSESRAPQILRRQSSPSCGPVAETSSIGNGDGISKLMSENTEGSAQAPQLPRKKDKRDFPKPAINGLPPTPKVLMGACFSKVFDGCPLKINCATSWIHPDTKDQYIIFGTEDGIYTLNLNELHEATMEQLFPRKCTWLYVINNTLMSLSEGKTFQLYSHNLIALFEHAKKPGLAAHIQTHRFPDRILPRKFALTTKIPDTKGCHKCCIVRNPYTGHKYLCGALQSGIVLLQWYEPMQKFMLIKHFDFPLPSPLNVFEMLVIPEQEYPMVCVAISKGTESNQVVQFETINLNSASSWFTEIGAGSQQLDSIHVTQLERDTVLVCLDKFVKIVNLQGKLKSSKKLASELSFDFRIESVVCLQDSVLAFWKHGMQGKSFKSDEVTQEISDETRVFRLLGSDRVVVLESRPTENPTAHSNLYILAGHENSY
# T1 sequence (P16234 24-1089): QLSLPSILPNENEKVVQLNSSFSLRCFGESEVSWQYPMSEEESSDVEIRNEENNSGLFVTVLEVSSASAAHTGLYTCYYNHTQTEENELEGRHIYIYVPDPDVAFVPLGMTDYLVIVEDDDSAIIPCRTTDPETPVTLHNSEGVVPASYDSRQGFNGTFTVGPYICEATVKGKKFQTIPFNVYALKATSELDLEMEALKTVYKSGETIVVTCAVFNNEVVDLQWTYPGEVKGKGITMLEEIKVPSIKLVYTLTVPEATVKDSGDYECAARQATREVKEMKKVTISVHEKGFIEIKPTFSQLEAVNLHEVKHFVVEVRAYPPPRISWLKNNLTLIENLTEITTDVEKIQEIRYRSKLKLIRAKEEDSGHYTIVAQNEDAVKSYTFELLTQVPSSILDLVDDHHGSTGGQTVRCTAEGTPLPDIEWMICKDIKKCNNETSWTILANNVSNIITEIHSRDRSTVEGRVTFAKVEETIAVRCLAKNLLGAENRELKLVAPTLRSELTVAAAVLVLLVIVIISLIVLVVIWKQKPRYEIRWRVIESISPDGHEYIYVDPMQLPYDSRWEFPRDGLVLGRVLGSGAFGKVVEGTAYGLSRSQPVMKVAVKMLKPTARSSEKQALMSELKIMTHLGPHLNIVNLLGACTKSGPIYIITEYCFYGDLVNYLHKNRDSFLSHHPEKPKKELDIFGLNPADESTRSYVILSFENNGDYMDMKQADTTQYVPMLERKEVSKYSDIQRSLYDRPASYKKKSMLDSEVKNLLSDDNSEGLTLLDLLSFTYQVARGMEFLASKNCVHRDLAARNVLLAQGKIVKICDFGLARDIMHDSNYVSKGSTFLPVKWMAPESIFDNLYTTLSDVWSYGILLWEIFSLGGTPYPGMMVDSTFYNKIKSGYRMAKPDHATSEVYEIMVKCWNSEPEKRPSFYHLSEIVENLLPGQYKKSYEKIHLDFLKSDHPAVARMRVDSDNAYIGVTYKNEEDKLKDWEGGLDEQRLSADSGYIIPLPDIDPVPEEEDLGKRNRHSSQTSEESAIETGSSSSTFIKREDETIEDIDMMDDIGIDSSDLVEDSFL
smiles,measurement,setting,value
CNC(=O)c1cc(Oc2ccc3nc(NC4CCCCC4O)sc3c2)ccn1 (stereo not drawn) [Compound (I)],inhibition at 0.5 µM,"[1]; read-out: % inhibition @ 0.5 μM, PDGFRKalpha (h)",28%
same,inhibition at 5 µM,"[1]; read-out: % inhibition @ 5 μM, PDGFRKalpha (h)",41%
same,inhibition at 20 µM,"[1]; read-out: % inhibition @ 20 μM, PDGFRKalpha (h)",55%
same,IC50,[2],> 10 µM
same,EC50,[3],> 10 µM
same,IC50,[4],> 25 µM
same,CSF-1 mediated macrophage survival,[5],significantly affects
same,IL-34 mediated macrophage survival,[5],significantly affects
same,IC50,[6],> 25 µM
same,IC50,[7],> 10 µM
same,IC50,[8],> 25 µM
same,IC50,[9],> 25 µM
same,EC50,[10],> 10 µM
same,VEGFa levels of human macrophages,[11],significantly decreased
same,EC50,[12],> 10 µM
same,CD163 expression in M2c macrophages,[13],no Compound (I) dose effect
same,IC50,[14],> 10 µM
same,EC50,[15],< 71 nM
same,IC50,[16],> 10 µM
same,IC50,[17],> 10 µM
same,IC50,[18],> 10 µM
same,EC50,[19],> 10 µM
same,EC50,[20],> 10 µM
same,IC50,[21],> 10 µM
same,IC50,[22],> 10 µM
same,IC50,[23],> 25 µM
same,EC50,[24],> 10 µM
same,EC50,[25],> 10 µM
same,EC50,[26],> 10 µM
same,EC50,[27],> 10 µM
same,EC50,[28],> 10 µM
same,IC50,[29],> 25 µM
same,inhibition at 0.05 µM,[30],30 to 50%
same,EC50,[31],> 10 µM
same,IC50,[32],> 10 µM
same,EC50,[33],> 10 µM
same,inhibition at 0.5 µM,"[34]; read-out: % inhibition @ 0.5 μM, Khs1 (h)",15%
same,inhibition at 5 µM,"[34]; read-out: % inhibition @ 5 μM, Khs1 (h)",27%
same,inhibition at 20 µM,"[34]; read-out: % inhibition @ 20 μM, Khs1 (h)",52%
